In ChEMBL document CHEMBL1125350, “L-thymidine is phosphorylated by herpes simplex virus type 1 thymidine kinase and inhibits viral growth” (J Med Chem, 1992):

Tested on: Thymidine kinase (Human herpesvirus 1)
Conditions: Human alphaherpesvirus 1

## Nc1ncnc2c1ncn2[C@H]1C[C@H](O)[C@@H](CO)O1
  ID50: > 1000 µM
